The record followed here is US20080275014A1, “Clobetasol Propionate Shampoos for the Treatment of Seborrheic Dermatitis of the Scalp” (Galderma S.A., priority 2004, published 2008).

A short description of the data set: Clobetasol plasma levels. The format is in vivo, human. To be noted: 45 subject plasma samples; after topical scalp treatment. As for the experimental part: This study was conducted as a single center, randomized, investigator-masked and competitor comparison of 4 parallel groups involving Psoriasis and Scalp seborrheic dermatitis subjects. The aim of the trial was to evaluate the opthalmological irritation potential and the potential to suppress the HPA axis of Clobetasol Propionate Shampoo, 0.05%. During 4 weeks, psoriasis subjects had to treat their scalp once a day with Clobetasol Shampoo, 0.05% or with Dermoval/Temovate gel. Scalp seborrheic dermatitis subjects had to treat their scalp twice a week with Clobetasol Shampoo, 0.05% or on a day with Dermoval/Temovate gel.
Each subjects was submitted at each visit (each week during 4 weeks) to the following tests, ocular examination, HPA-axis function, local and general safety. First, opthalmological examination, measurement of intraocular pressure, detection of ocular subjective symptoms such as burning sensation, measurement of far and near visual acuity. Second, they were sampled for serum cortisol levels and were submitted to the Cosyntropin (Synacthene) stimulation assay. Cutaneous safety (skin atrophy using B-Scan ultra-sound and telangiectasis) and adverse events were also recorded. Systemic safety was also assessed by routine laboratory test and detection of Clobetasol Plasma levels, cutaneous safety, and DSS at the end of the study.

Turning to `CCC(=O)O[C@]1(C(=O)CCl)[C@@H](C)C[C@H]2[C@@H]3CCC4=CC(=O)C=C[C@]4(C)[C@@]3(F)[C@@H](O)C[C@@]21C` [Clobatasol 17-propionate, clobetasol 17-propionate], the “amounts found in subject plasma samples” value is given as “No detectable amounts”.
